This note sets out measurements from patent US7928060B2, “Amylin family polypeptide-6 (AFP-6) analogs and methods of making and using them” (Amylin Pharmaceuticals, Inc., priority 2004, dated 2011).

One experiment deals with Sprague-Dawley rats. In words: 1-week continuous subcutaneous infusion in high fat-fed rats: food intake and body weight. Type of experiment: in vivo, rat. To be noted: 75 nmol/kg/day. The source says:
Individually housed male Sprague-Dawley® rats (beginning weight=310 g; 12-h light/dark cycle) were maintained on a high fat (HF) diet (Research Diet 58% kcal from fat). Rats were fattened for 34 days. At the end of the fattening period, 7-day osmotic pumps (Durect Corp.) were implanted interscapularly under anesthesia (body weight at time of implant=403 g). The rats received pumps delivering compound or vehicle (50% DMSO). The following compounds were examined at a 75 nmol/kg/day dose: AFP-6, and an AFP-6 analog SEQ ID NO:32. Food intake and body weight measurements were obtained on day 2 and day 7. Group differences were analyzed using analysis of variance (ANOVA) and Fisher's Least-Significant Difference test.

The target of a further experiment is T1, CGRP receptors (Homo sapiens, UniProt O60894+Q16602).
T1 construct: membranes prepared from SK-N-MC cells, known to express CGRP receptors; endogenous in cells; host or cells: SK-N-MC cell membranes
T1 sequence (Q16602 23-461): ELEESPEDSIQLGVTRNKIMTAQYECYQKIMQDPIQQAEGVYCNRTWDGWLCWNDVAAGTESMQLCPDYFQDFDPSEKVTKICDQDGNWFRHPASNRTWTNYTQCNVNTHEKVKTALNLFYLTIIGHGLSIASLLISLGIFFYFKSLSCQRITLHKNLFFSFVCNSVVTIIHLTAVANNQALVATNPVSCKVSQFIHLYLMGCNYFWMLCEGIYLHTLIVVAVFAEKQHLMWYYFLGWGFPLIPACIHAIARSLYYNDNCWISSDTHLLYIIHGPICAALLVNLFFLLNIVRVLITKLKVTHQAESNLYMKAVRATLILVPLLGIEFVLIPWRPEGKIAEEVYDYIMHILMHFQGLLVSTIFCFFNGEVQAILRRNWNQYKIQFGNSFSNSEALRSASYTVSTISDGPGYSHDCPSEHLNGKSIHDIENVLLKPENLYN
T1 sequence (O60894 27-148): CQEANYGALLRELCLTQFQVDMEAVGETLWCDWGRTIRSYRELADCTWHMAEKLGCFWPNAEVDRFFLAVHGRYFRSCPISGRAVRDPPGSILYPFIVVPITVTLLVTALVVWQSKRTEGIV
In words: CGRP radioligand binding assay (125I-hCGRP, SK-N-MC cell membranes). To be noted: FIG. 11.

The next experiment concerns rats. In words: telemetry of cardiovascular parameters in conscious rats. The conditions noted are these: 10 nmol/kg intravenous. The class given is in vivo, rat. From the text: Telemetry allows for real-time hemodynamic readings including arterial pressure, heart rate, arterial dP/dt, ECG (with waveform intervals) and core temperature via an implanted radio transmitter in conscious, non-anesthetized, unrestrained rats. […] Remote intravenous dosing is achieved through in-dwelling vascular access ports.

In the case of `CSCC[C@H](NC(=O)[C@H](CC(C)C)NC(=O)[C@H](CCC(N)=O)NC(=O)[C@H](Cc1c[nH]c2ccccc12)NC(=O)[C@H](CC(C)C)NC(=O)[C@H](CCCNC(=N)N)NC(=O)[C@H](Cc1c[nH]cn1)NC(=O)[C@H](CO)NC(=O)[C@H](CC(C)C)NC(=O)[C@H](CC(N)=O)NC(=O)[C@H](CCC(N)=O)NC(=O)[C@@H](NC(=O)[C@H](CCC(N)=O)NC(=O)[C@@H]1CSSC[C@H](NC(=O)CNC(=O)[C@@H](NC(=O)[C@H](CCCNC(=N)N)NC(=O)[C@H](CC(C)C)NC(=O)[C@H](CC(C)C)NC(=O)[C@H](CCC(N)=O)NC(=O)[C@H](C)NC(=O)[C@H](CCC(N)=O)NC(=O)[C@@H](N)[C@@H](C)O)C(C)C)C(=O)N[C@@H](C(C)C)C(=O)N[C@@H](CC(C)C)C(=O)NCC(=O)N[C@@H]([C@@H](C)O)C(=O)N1)C(C)C)C(=O)NCC(=O)N1CCC[C@H]1C(=O)N[C@@H](C)C(=O)NCC(=O)N[C@@H](CCCNC(=N)N)C(=O)N[C@@H](CCC(N)=O)C(=O)N[C@@H](CC(=O)O)C(=O)N[C@@H](CO)C(=O)N[C@@H](C)C(=O)N1CCC[C@H]1C(=O)N[C@H](C(=O)N[C@@H](CC(=O)O)C(=O)N1CCC[C@H]1C(=O)N[C@@H](CO)C(=O)N[C@@H](CO)C(=O)N1CCC[C@H]1C(=O)N[C@@H](Cc1c[nH]cn1)C(=O)N[C@@H](CO)C(=O)N[C@@H](Cc1ccc(O)cc1)C(N)=O)C(C)C` [SEQ ID NO: 1], in the experiment on Sprague-Dawley rats (Day 7), the “body weight gain compared to Vehicle” value was “significantly less body weight gain than Vehicle” and the “percent body weight loss (vehicle-corrected)” value is given as 3.2%. Further, in the experiment on Sprague-Dawley rats (after 2 days of treatment), the “food intake compared to Vehicle” value is reported as “significantly reduced food intake”. For the same molecule, on CGRP receptors, the “rank order, displacement of CGRP” value is given as “CGRP >adrenomedullin >AFP-6 >amylin>>calcitonin”. Further, the “profile over all three cardiovascular parameters” value in the experiment with rats was “profile more amylin-like than adrenomedullin like”.
